From patent US10759781B2, “Substituted guanidine derivatives” (UBE INDUSTRIES, LTD., priority 2015, dated 2020)

What was measured:
in vivo = assay: in vivo; parameters: species or system SD rats; conditions: SD, rat, po, 3 mg/kg
Experimental: Rat Pharmacokinetic (PK) Study (Concentration of Compound in Plasma after Oral Administration)
Seven to eight week old SD rats (weighing 180 to 250 g) were orally administered with a suspension of the compound in 0.5 W/V % methylcellulose 400 solution. Under anesthesia, the blood was collected from the jugular vein in EDTA tubes at 0.25, 0.5, 1, 2, 4, 6, 8 and 24 hours after the administration of the compound. The blood was centrifuged at 4° C. and 6000 g for 3 minutes to give plasma. Acetonitrile was added to the plasma, and the mixture was stirred with a shaker at 750 rpm for 3 minutes and was deproteinized by centrifugation at 3700 rpm for 2 minutes. Thus, the obtained sample was analyzed by LC/MS under the following conditions.
The concentration of the compound in the plasma at each blood sampling time was determined by an internal standard method, and AUC all (Area Under Curve) was calculated by a trapezoidal method.
The following LC and MS systems were used for measurement.
LC: CBM 30 series manufactured by Shimadzu Corporation
Column: Phenomenex Kinetex C18 (50×2.1 mm, 2.6 μm)
Column temperature: 40° C.
Mobile phase A: 0.1% aqueous formic acid solution, mobile phase B: 0.1% formic acid,
50% acetonitrile/methanol mixture
MS: 3200 manufactured by SCIEX

Rat Plasma VAP-1 = target: T1, Rat Plasma VAP-1 (Rattus norvegicus, UniProt O08590); assay: (Ex vivo) rat plasma VAP-1 inhibition test after oral administration of the compound; format: in vivo; conditions: 3 hours after oral administration, SD male rats, read-out: inhibition ratio (plasma VAP-1, ex vivo)
T1 construct: from tissue; host or cells: plasma of SD male rats (7-12 weeks old) after oral dosing
T1 sequence (O08590 28-763 limits assumed): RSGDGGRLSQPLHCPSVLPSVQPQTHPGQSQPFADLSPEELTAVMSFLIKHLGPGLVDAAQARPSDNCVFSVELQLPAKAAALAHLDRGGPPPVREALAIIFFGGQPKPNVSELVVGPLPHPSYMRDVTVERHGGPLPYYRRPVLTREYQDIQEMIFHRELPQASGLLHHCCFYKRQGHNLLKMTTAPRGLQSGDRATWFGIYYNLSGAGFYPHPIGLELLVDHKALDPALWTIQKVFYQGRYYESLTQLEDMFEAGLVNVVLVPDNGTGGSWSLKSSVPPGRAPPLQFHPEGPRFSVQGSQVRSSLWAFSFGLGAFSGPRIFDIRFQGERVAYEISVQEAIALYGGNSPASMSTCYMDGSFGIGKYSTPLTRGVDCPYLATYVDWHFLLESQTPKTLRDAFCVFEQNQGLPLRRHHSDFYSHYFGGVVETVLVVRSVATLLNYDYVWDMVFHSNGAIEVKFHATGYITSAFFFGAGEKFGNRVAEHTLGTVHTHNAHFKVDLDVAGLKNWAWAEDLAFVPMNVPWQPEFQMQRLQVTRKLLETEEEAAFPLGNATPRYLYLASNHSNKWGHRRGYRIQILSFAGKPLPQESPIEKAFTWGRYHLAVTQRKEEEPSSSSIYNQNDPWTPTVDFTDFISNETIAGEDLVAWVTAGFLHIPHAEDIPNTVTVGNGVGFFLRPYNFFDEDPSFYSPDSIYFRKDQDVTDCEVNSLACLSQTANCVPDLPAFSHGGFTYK
Procedure, shortened: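 Male SD rats, 7–12 weeks, non-fasted, dosed orally at 0.3–10 mg/kg; jugular blood taken predose and 3, 8 and 24 h after dosing. Plasma incubated with 2.5 μM 14C-benzylamine for 3 h at 37 °C; extracted product counted by scintillation. Inhibition expressed relative to each animal's predose plasma activity.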

Human VAP-1 enzyme = target: T2, Human VAP-1 enzyme (Homo sapiens, UniProt Q16853); assay: Human VAP-1 enzyme inhibition test; format: biochemical; conditions: 1 h; compound 30 nM; 14C-benzylamine 100 μM; read-out: inhibition ratio (human VAP-1 enzyme)
T2 construct: purchased R&D Systems, Inc
T2 sequence (Q16853 1-763): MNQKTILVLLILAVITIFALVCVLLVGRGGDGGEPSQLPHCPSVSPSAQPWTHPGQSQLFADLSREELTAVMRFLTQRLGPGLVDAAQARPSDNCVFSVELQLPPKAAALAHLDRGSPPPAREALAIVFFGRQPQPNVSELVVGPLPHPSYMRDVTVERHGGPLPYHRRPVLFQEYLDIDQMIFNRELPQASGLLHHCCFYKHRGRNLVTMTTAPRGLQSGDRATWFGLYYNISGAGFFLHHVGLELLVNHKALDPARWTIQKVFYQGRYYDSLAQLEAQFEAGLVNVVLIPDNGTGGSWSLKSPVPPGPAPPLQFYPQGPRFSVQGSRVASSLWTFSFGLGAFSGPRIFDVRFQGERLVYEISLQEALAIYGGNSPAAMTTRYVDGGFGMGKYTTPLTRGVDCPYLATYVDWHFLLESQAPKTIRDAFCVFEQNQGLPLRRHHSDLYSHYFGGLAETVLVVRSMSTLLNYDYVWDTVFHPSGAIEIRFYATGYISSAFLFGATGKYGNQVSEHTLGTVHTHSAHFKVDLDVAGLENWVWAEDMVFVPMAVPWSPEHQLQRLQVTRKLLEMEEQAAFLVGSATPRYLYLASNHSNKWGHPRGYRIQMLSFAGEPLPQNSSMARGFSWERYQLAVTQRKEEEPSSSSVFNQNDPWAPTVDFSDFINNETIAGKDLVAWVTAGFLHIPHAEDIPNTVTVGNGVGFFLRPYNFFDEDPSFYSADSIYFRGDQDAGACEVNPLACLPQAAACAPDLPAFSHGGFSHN
Procedure, shortened: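 Activity measured as radioactive oxidation product of 14C-benzylamine (100 μM final), extracted with toluene/ethyl acetate after citric acid stop and scintillation-counted. Enzyme (recombinant human VAP-1) first exposed to compound 20 min at room temperature, reaction then 1 h at 37 °C. Percent inhibition versus DMSO control.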

## [2H]C([2H])([2H])ON=C1CN(c2ncc(-c3cccc(COC(=O)NC(=N)N)c3F)cc2F)C1 [Example 37, 2-fluoro-3-(5-fluoro-6-{3-[(methoxy-d3)imino]azetidin-1-yl}pyridin-3-yl)benzyl carbamimidoylcarbamate]
In vivo
  AUC: ≥ 1000 ng·h/mL
Rat Plasma VAP-1
  inhibition in vivo at 0.3 mg/kg: ≥ 50%
Human VAP-1 enzyme
  inhibition at 0.03 µM: ≥ 50%

## N=C(N)NC(=O)OCc1cccc(-c2cnc(N3CC(=NOCC(F)CO)C3)nc2)c1F (stereo not drawn) [Example 102, 2-Fluoro-3-(2-{3-[(2-fluoro-3-hydroxypropoxy)imino]azetidin-1-yl}pyrimidin-5-yl)benzyl carbamimidoylcarbamate]
In vivo
  AUC: ≥ 1000 ng·h/mL
Rat Plasma VAP-1
  inhibition in vivo at 0.3 mg/kg: ≥ 50%
Human VAP-1 enzyme
  inhibition at 0.03 µM: ≥ 50%

## N=C(N)NC(=O)OCc1cccc(-c2cnc(N3CC(=NOCCC(O)CO)C3)c(F)c2)c1F (stereo not drawn) [Example 95, 3-(6-{3-[(3,4-Dihydroxybutoxy)imino]azetidin-1-yl}-5-fluoropyridin-3-yl)-2-fluorobenzyl carbamimidoylcarbamate]
In vivo
  AUC: ≥ 1000 ng·h/mL
Rat Plasma VAP-1
  inhibition in vivo at 0.3 mg/kg: ≥ 50%
Human VAP-1 enzyme
  inhibition at 0.03 µM: ≥ 50%

## N=C(N)NC(=O)OCc1cccc(-c2cnc(N3CC(=NOCC(CO)CO)C3)c(F)c2)c1F [Example 96, 2-Fluoro-3-{5-fluoro-6-[3-{[3-hydroxy-2-(hydroxymethyl)propoxy]imino}azetidin-1-yl]pyridin-3-yl}benzyl carbamimidoylcarbamate]
In vivo
  AUC: ≥ 1000 ng·h/mL
Rat Plasma VAP-1
  inhibition in vivo at 0.3 mg/kg: ≥ 50%
Human VAP-1 enzyme
  inhibition at 0.03 µM: ≥ 50%

## CON=C1CN(c2ncc(-c3cccc(COC(=O)NC(=N)N)c3F)cc2F)C1 [Example 36, 2-fluoro-3-{5-fluoro-6-[3-(methoxyimino)azetidin-1-yl]pyridin-3-yl}benzyl carbamimidoylcarbamate]
In vivo
  AUC: ≥ 1000 ng·h/mL
Rat Plasma VAP-1
  inhibition in vivo at 0.3 mg/kg: ≥ 50%
Human VAP-1 enzyme
  inhibition at 0.03 µM: ≥ 50%
